{"source": "ChEMBL document CHEMBL6109084", "about": "(Eur J Med Chem, 2025)", "key": {"Coagulation factor X": {"target": "Coagulation factor X (Homo sapiens, UniProt P00742)", "sequence (P00742 41-179 limits assumed)": "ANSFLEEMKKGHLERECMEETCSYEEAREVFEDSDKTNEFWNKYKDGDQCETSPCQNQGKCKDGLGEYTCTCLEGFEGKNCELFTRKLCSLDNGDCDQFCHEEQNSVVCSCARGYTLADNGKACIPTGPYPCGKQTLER", "sequence (P00742 235-488 limits assumed)": "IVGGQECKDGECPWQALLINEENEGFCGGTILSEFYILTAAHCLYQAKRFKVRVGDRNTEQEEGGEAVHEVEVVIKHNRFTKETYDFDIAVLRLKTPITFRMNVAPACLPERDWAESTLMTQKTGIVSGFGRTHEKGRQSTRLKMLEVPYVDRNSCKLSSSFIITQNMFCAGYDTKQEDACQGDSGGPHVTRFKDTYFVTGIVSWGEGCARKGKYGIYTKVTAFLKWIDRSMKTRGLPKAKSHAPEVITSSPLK", "test": "Inhibition of FXa (unknown origin) using Z-D-Arg-Gly-Arg-pNA.2HCl as substrate incubated for 30 mins followed by substrate addition and measured after 60 mins by microplate reader analysis"}, "Trypsin": {"target": "Trypsin (Homo sapiens, UniProt P07477+P07478+P35030)", "test": "Inhibition of trypsin (unknown origin) using Bz-Ile-Glu(gamma-OR)-Gly-Arg-pNA.HCl as substrate incubated for 30 mins followed by substrate addition and measured after 60 mins by microplate reader analysis", "format": "protein assay"}, "Chymotrypsin": {"target": "Chymotrypsin (Homo sapiens, UniProt Q99895+P17538+P40313+Q6GPI1)", "test": "Inhibition of chymotrypsin (unknown origin) using N-Suc-Ala-Ala-Pro-Phe-pNA as substrate incubated for 30 mins followed by substrate addition and measured after 60 mins by microplate reader analysis", "format": "protein assay"}, "[1]": {"target": "Tissue-type plasminogen activator (Homo sapiens, UniProt P00750)", "sequence (P00750 whole entry)": "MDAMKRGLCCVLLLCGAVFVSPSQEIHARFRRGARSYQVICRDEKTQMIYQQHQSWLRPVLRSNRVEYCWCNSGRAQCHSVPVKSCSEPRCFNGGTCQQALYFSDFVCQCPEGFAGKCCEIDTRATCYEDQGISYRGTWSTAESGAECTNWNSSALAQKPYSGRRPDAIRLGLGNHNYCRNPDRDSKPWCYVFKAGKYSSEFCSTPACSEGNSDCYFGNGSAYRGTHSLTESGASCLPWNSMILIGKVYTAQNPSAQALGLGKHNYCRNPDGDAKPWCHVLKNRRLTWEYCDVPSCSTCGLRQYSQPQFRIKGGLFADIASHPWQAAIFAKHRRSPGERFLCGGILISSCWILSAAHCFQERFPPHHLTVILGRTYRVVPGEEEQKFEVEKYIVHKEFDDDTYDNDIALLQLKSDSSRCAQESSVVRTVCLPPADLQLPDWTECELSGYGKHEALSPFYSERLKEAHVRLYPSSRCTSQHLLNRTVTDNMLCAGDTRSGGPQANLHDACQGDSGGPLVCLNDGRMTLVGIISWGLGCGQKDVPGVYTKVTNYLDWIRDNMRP", "test": "Inhibition of tPA (unknown origin) using H-D-Ile-Pro-Arg-pNA-2HCl as substrate incubated for 30 mins followed by substrate addition and measured after 60 mins by microplate reader analysis"}, "[2]": {"test": "Cytotoxicity against human AC16 [Human hybrid] cells assessed as reduction in cell viability at 1 to 50 uM incubated for 24 hrs by MTT assay", "format": "toxicity, cell-based", "settings": "dose 1-50 µM"}, "HepG2": {"test_system": "HepG2", "test": "Cytotoxicity against human HepG2 cells assessed as reduction in cell viability at 1 to 50 uM incubated for 24 hrs by MTT assay", "format": "toxicity, cell-based", "settings": "hepg2, 24 h, dose 1-50 µM"}, "HK-2": {"test_system": "HK-2", "test": "Cytotoxicity against human HK-2 cells assessed as reduction in cell viability at 1 to 50 uM incubated for 24 hrs by MTT assay", "format": "toxicity, cell-based", "settings": "hk-2, 24 h, dose 1-50 µM"}, "Mus musculus [3]": {"test_system": "Mus musculus", "test": "Antithrombotic activity in FeCl3-induced carotid arterial thrombosis C57BL/6J mouse model assessed as increase in blood flow velocity at 10 mg/kg, po measured after 0.5 to 4 hrs", "format": "functional, organism-based", "settings": "time 0.5-4 hrs"}, "Mus musculus [4]": {"test_system": "Mus musculus", "test": "Antithrombotic activity in po dosed FeCl3-induced carotid arterial thrombosis C57BL/6J mouse model assessed as increase in mean blood flow velocity measured after 0.5 hrs", "format": "functional, organism-based", "settings": "dose 5-30 mg/kg"}, "Mus musculus [5]": {"test_system": "Mus musculus", "test": "Antithrombotic activity in FeCl3-induced carotid arterial thrombosis C57BL/6J mouse model assessed as increase in blood flow velocity at 10 mg/kg, po measured after 2 to 4 hrs", "format": "functional, organism-based", "settings": "time 2-4 hrs"}, "Oryctolagus cuniculus [6]": {"test_system": "Oryctolagus cuniculus", "test": "Antithrombotic activity in FeCl3-induced carotid arterial thrombosis male New Zealand white rabbits model assessed as reduction in wet thrombus weight at 2 mg/kg, iv preincubated for 30 mins followed by FeCl3 application for 5 mins and measured after 30 mins relative to control", "format": "functional", "set-up": "scale not given: the % may be the effect or the level left", "settings": "time 65 min, 1.083 h"}, "[7]": {"test": "Toxicity in male New Zealand white rabbit assessed as prolongation of bleeding time at 2 to 6 mg/kg, iv by ear bleeding assay", "format": "organism-based, Oryctolagus cuniculus", "settings": "in vivo, dose 2-6 mg/kg"}, "[8]": {"test": "Acute toxicity in C57BL/6J mouse assessed as anaphylaxis response at 60 to 100 mg/kg, po administered as single dose for 14 days", "format": "organism-based", "settings": "in vivo, 336 h, dose 60-100 mg/kg, time 14 day"}, "[9]": {"test": "Acute toxicity in C57BL/6J mouse assessed as allergic reactions at 60 to 100 mg/kg, po administered as single dose for 14 days", "format": "organism-based", "settings": "in vivo, 336 h, dose 60-100 mg/kg, time 14 day"}, "[10]": {"test": "Acute toxicity in C57BL/6J mouse assessed as weight loss at 60 to 100 mg/kg, po administered as single dose for 14 days", "format": "organism-based", "settings": "in vivo, 336 h, dose 60-100 mg/kg, time 14 day"}, "[11]": {"test": "Acute toxicity in C57BL/6J mouse assessed as pathological changes in heart at 60 to 100 mg/kg, po administered as single dose for 14 days by H and E staining based analysis", "format": "organism-based", "settings": "in vivo, 336 h, dose 60-100 mg/kg, time 14 day"}, "[12]": {"test": "Acute toxicity in C57BL/6J mouse assessed as pathological changes in spleen at 60 to 100 mg/kg, po administered as single dose for 14 days by H and E staining based analysis", "format": "organism-based", "settings": "in vivo, 336 h, dose 60-100 mg/kg, time 14 day"}, "[13]": {"test": "Acute toxicity in C57BL/6J mouse assessed as effect on serum ALT level at 60 to 100 mg/kg, po administered as single dose for 14 days", "format": "organism-based", "settings": "in vivo, 336 h, dose 60-100 mg/kg, time 14 day"}, "[14]": {"test": "Acute toxicity in C57BL/6J mouse assessed as effect on serum ALP level at 60 to 100 mg/kg, po administered as single dose for 14 days", "format": "organism-based", "settings": "in vivo, 336 h, dose 60-100 mg/kg, time 14 day"}, "Oryctolagus cuniculus [15]": {"test_system": "Oryctolagus cuniculus", "test": "Antithrombotic activity in FeCl3-induced carotid arterial thrombosis male New Zealand white rabbits model assessed as reduction in dry thrombus weight at 2 mg/kg, iv preincubated for 30 mins followed by FeCl3 application for 5 and measured after 45 mins relative to control", "format": "functional", "set-up": "scale not given: the % may be the effect or the level left", "settings": "time 80 min, 1.333 h"}, "Oryctolagus cuniculus [16]": {"test_system": "Oryctolagus cuniculus", "test": "Antithrombotic activity in FeCl3-induced carotid arterial thrombosis male New Zealand white rabbits model assessed as reduction in dry thrombus weight at 6 mg/kg, iv preincubated for 30 mins followed by FeCl3 application for 5 and measured after 45 mins relative to control", "format": "functional, organism-based", "settings": "time 80.0 min"}, "[17]": {"test": "Apparent permeability in MDCK-MDR1 cells", "format": "ADME, cell-based, Canis lupus familiaris", "settings": "dog"}, "[18]": {"test": "Selectivity index, ratio of IC50 for inhibition of FXIIa (unknown origin) using H-D-ProPhe-Arg-pNA.2HCl as substrate to IC50 for inhibition of human FXIa using p-Glu-Pro-Arg-pNA.HCl as substrate"}, "[19]": {"test": "Selectivity index, ratio of IC50 for inhibition of thrombin (unknown origin) using H-D-Phe-Pip-Arg-pNA.2HCl as substrate to IC50 for inhibition of human FXIa using p-Glu-Pro-Arg-pNA.HCl as substrate"}, "[20]": {"test": "Selectivity index, ratio of IC50 for inhibition of FXa (unknown origin) using Z-D-Arg-Gly-Arg-pNA.2HCl as substrate to IC50 for inhibition of human FXIa using p-Glu-Pro-Arg-pNA.HCl as substrate"}, "[21]": {"test": "Selectivity index, ratio of IC50 for inhibition of plasmin (unknown origin) using PyroGlu-Phe-Lys-pNA.HCl as substrate to IC50 for inhibition of human FXIa using p-Glu-Pro-Arg-pNA.HCl as substrate"}, "[22]": {"test": "Selectivity index, ratio of IC50 for inhibition of tPA (unknown origin) using H-D-Ile-Pro-Arg-pNA-2HCl as substrate to IC50 for inhibition of human FXIa using p-Glu-Pro-Arg-pNA.HCl as substrate"}, "Mus musculus [23]": {"test_system": "Mus musculus", "test": "In vivo inhibition of FXIa in FeCl3-induced carotid arterial thrombosis C57BL/6J mouse model assessed as decrease in FXIa level in plasma at 5 to 30 mg/kg, po measured after 0.5 hrs by ELISA", "format": "functional, organism-based", "settings": "dose 5-30 mg/kg"}, "[24]": {"test": "Acute toxicity in C57BL/6J mouse assessed as effect on heart weight at 60 to 100 mg/kg, po measured after 24 hrs", "format": "organism-based", "settings": "in vivo, dose 60-100 mg/kg"}, "[25]": {"test": "Acute toxicity in C57BL/6J mouse assessed as effect on serum alanine transaminase level at 60 to 100 mg/kg, po measured after 24 hrs", "format": "organism-based", "settings": "in vivo, dose 60-100 mg/kg"}, "physchem": {"test": "physchem", "settings": "aqueous medium, pH 7.4", "description": "Aqueous solubility of the compound in DMSO at pH 7.4 incubated for 12 hrs by turbidimetric based UV spectrophotometric analysis"}}, "note": "Calls of active or inactive are those of the source. No cut-off for these calls is given here."}
{"smiles": "COc1cn(Cc2cc(-c3ccc(N)nc3F)ccn2)c(=O)cc1-c1cc(Cl)ccc1-n1cnnn1", "values": [{"measurement": "IC50", "setting": "Coagulation factor X", "result": "> 1000", "unit": "nM"}, {"measurement": "IC50", "setting": "Trypsin", "result": "> 1000", "unit": "nM"}, {"measurement": "IC50", "setting": "Chymotrypsin", "result": "> 1000", "unit": "nM"}, {"measurement": "IC50", "setting": "[1]", "result": "> 1000", "unit": "nM"}, {"measurement": "Activity", "setting": "[2]", "result": "Non-toxic"}, {"measurement": "Activity", "setting": "HepG2", "result": "Non-toxic"}, {"measurement": "Activity", "setting": "HK-2", "result": "Non-toxic"}, {"measurement": "Activity", "setting": "Mus musculus [3]", "result": "Active"}, {"measurement": "Activity", "setting": "Mus musculus [4]", "result": "Dose-dependent-effect"}, {"measurement": "Activity", "setting": "Mus musculus [5]", "result": "Active; Pronounced Increase Observed Compared To Compound F"}, {"measurement": "Activity", "setting": "Oryctolagus cuniculus [6]", "result": ">50", "unit": "%"}, {"measurement": "Activity", "setting": "[7]", "result": "Non-toxic"}, {"measurement": "Activity", "setting": "[8]", "result": "Non-toxic"}, {"measurement": "Activity", "setting": "[9]", "result": "Non-toxic"}, {"measurement": "Activity", "setting": "[10]", "result": "Non-toxic"}, {"measurement": "Activity", "setting": "[11]", "result": "Non-toxic"}, {"measurement": "Activity", "setting": "[12]", "result": "Non-toxic"}, {"measurement": "Activity", "setting": "[13]", "result": "Non-toxic"}, {"measurement": "Activity", "setting": "[14]", "result": "Non-toxic"}, {"measurement": "Activity", "setting": "Oryctolagus cuniculus [15]", "result": ">50", "unit": "%"}, {"measurement": "Activity", "setting": "Oryctolagus cuniculus [16]", "result": "Active"}, {"measurement": "Papp", "setting": "[17]", "result": 0.5, "unit": "×10⁻⁶ cm/s"}, {"measurement": "Ratio IC50", "setting": "[18]", "result": "> 1000"}, {"measurement": "Ratio IC50", "setting": "[19]", "result": "> 1000"}, {"measurement": "Ratio IC50", "setting": "[20]", "result": "> 1000"}, {"measurement": "Ratio IC50", "setting": "[21]", "result": "> 1000"}, {"measurement": "Ratio IC50", "setting": "[22]", "result": "> 1000"}, {"measurement": "inhibition", "setting": "Mus musculus [23]", "result": "Active"}, {"measurement": "Activity", "setting": "[24]", "result": "Non-toxic"}, {"measurement": "Activity", "setting": "[25]", "result": "Non-toxic"}, {"measurement": "solubility kinetic at 12 h", "setting": "physchem", "result": 122, "unit": "µg/mL"}]}
